Biological target: SARS2 coronavirus 3CL protease (Severe acute respiratory syndrome coronavirus 2, UniProt P0DTD1)
Experiment: biochemical
Details: 5 nM enzyme, 30 min pre-incubation with compound, 15 μM peptide substrate, 4 h at room temperature; read-out: FRET Potency (nM); IC50 values in the SARS2 3CLPro FRET assay

Structure (SMILES)	IC50 [nM]
CNC(=O)C(=O)[C@H](C[C@@H]1C[C@@H](C)NC1=O)NC(=O)c1cc(F)ccc1NC(=O)OC1CC1 [Example 121, cyclopropyl N-[4-fluoro-2-[[(1S)-3-(methylamino)-1-[[(3S,5R)-5-methyl-2-oxo-pyrrolidin-3-yl]methyl]-2,3-dioxo-propyl]carbamoyl]phenyl] carbamate]	10.9
CNC(=O)C(=O)[C@H](C[C@@H]1C[C@@H](C)NC1=O)NC(=O)c1cc(Cl)ccc1NC(=O)C(C)c1ccc(C(F)(F)F)nc1 (single isomer, unassigned) [Example 230]	7
C[C@@H]1C[C@@H](C[C@H](NC(=O)c2cc(Cl)ccc2NC(=O)CC(F)(F)F)C(=O)C(=O)NC2CC2)C(=O)N1 [Example 42, 5-chloro-N-[(1S)-3-(cyclopropylamino)-1-[[(3S,5R)-5-methyl-2-oxo-pyrrolidin-3-yl]methyl]-2,3-dioxo-propyl]-2-(3,3,3-trifluoropropanoylamino) benzamide]	9.8
C[C@@H]1C[C@@H](C[C@H](NC(=O)c2cc(Cl)ccc2NC(=O)C2CC2C(F)(F)F)C(=O)C(=O)NC2CC2)C(=O)N1 (stereo partly drawn) [Example 98, 5-chloro-N-[(1S)-3-(cyclopropylamino)-1-[[(3S,5R)-5-methyl-2-oxo-pyrrolidin-3-yl]methyl]-2,3-dioxo-propyl]-2-[[2-(trifluoromethyl)cyclopropane-carbonyl]amino]benzamide]	9.5
C[C@@H]1C[C@@H](C[C@H](NC(=O)c2cc(Cl)c(F)cc2NC(=O)CCC(F)(F)F)C(=O)C(=O)NC2CC2)C(=O)N1 [Example 53, 5-chloro-N-[(1S)-3-(cyclopropylamino)-1-[[(3S,5R)-5-methyl-2-oxo-pyrrolidin-3-yl]methyl]-2,3-dioxo-propyl]-4-fluoro-2-(4,4,4-trifluorobutanoylamino) benzamide]	8.3
CNC(=O)C(=O)[C@H](C[C@@H]1C[C@@H](C)NC1=O)NC(=O)c1cc(Cl)ccc1NC(=O)OC(C)(C)C [Example 153, tert-butyl N-[4-chloro-2-[[(1S)-3-(methylamino)-1-[[(3S,5R)-5-methyl-2-oxo-pyrrolidin-3-yl]methyl]-2,3-dioxo-propyl]carbamoyl]phenyl] carbamate]	39.8
C[C@@H]1C[C@@H](C[C@H](NC(=O)c2cc(Cl)ccc2NC(=O)C2CC2C(F)(F)F)C(=O)C(=O)NC2CC2)C(=O)N1 (stereo partly drawn) [Example 97, 5-chloro-N-[(1S)-3-(cyclopropylamino)-1-[[(3S,5R)-5-methyl-2-oxo-pyrrolidin-3-yl]methyl]-2,3-dioxo-propyl]-2-[[2-(trifluoromethyl)cyclopropane-carbonyl]amino]benzamide]	7.7
CC(OC(=O)Nc1ccc(Cl)cc1C(=O)N[C@@H](C[C@@H]1C[C@@H](C)NC1=O)C(=O)C(=O)NC1CC1)C(F)(F)F (stereo partly drawn) [Example 210, (2,2,2-trifluoro-1-methyl-ethyl) N-[4-chloro-2-[[(1S)-3-(cyclopropylamino)-1-[[(3S,5R)-5-methyl-2-oxo-pyrrolidin-3-yl]methyl]-2,3-dioxo-propyl]carbamoyl]phenyl] carbamate]	7.8
CNC(=O)C(=O)[C@H](C[C@@H]1C[C@@H](C)NC1=O)NC(=O)c1cc(Cl)cnc1NC(=O)C12CC(F)(C1)C2 [Example 50, 5-chloro-2-[(3-fluorobicyclo[1.1.1]pentane-1-carbonyl)amino]-N-[(1S)-3-(methylamino)-1-[[(3S,5R)-5-methyl-2-oxo-pyrrolidin-3-yl]methyl]-2,3-dioxo-propyl]pyridine-3-carboxamide]	8.7
C[C@@H]1C[C@@H](C[C@H](NC(=O)c2cc(Cl)ccc2NC(=O)CCC(F)(F)F)C(=O)C(N)=O)C(=O)N1 [Example 158, N-[(1S)-3-amino-1-[[(3S,5R)-5-methyl-2-oxo-pyrrolidin-3-yl]methyl]-2,3-dioxo-propyl]-5-chloro-2-(4,4,4-trifluorobutanoylamino) benzamide]	8.3
CNC(=O)C(=O)[C@H](C[C@@H]1C[C@@H](C)NC1=O)NC(=O)c1cc(Cl)ccc1NC(=O)c1cccc(C(F)(F)F)n1 [Example 26, N-[4-chloro-2-[[(1S)-3-(methylamino)-1-[[(3S,5R)-5-methyl-2-oxo-pyrrolidin-3-yl]methyl]-2,3-dioxo-propyl]carbamoyl]phenyl]-6-(trifluoromethyl)pyridine-2-carboxamide]	17.4
C[C@@H]1C[C@@H](C[C@H](NC(=O)c2cc(F)c(F)cc2NC(=O)c2cncc(C(F)(F)F)c2)C(=O)C(=O)NC2CC2)C(=O)N1 [Example 99, N-[2-[[(1S)-3-(cyclopropylamino)-1-[[(3S,5R)-5-methyl-2-oxo-pyrrolidin-3-yl]methyl]-2,3-dioxo-propyl]carbamoyl]-4,5-difluoro-phenyl]-5-(trifluoromethyl)pyridine-3-carboxamide]	13
CNC(=O)C(=O)[C@H](C[C@@H]1C[C@@H](C)NC1=O)NC(=O)c1cc(Cl)cnc1NC(=O)c1ccc(F)cc1 [Example 57, 5-chloro-2-[(4-fluorobenzoyl)amino]-N-[(1S)-3-(methylamino)-1-[[(3S,5R)-5-methyl-2-oxo-pyrrolidin-3-yl]methyl]-2,3-dioxo-propyl]pyridine-3-carboxamide]	8.1
CNC(=O)C(=O)[C@H](C[C@@H]1C[C@@H](C)NC1=O)NC(=O)c1cc(C(F)F)ccc1NC(=O)C1(C(F)(F)F)CC1 [Example 203, 5-(difluoromethyl)-N-[(1S)-3-(methylamino)-1-[[(3S,5R)-5-methyl-2-oxo-pyrrolidin-3-yl]methyl]-2,3-dioxo-propyl]-2-[[1-(trifluoromethyl)cyclopropane-carbonyl]amino]benzamide]	36.6
CNC(=O)C(=O)[C@H](C[C@@H]1C[C@@H](C)NC1=O)NC(=O)c1cc(Cl)ccc1NC(=O)C1CCCC1(F)F (stereo partly drawn) [Example 184, 5-chloro-2-[(2,2-difluorocyclopentanecarbonyl)amino]-N-[(1S)-3-(methylamino)-1-[[(3S,5R)-5-methyl-2-oxo-pyrrolidin-3-yl]methyl]-2,3-dioxo-propyl]benzamide]	13.5
CNC(=O)C(=O)[C@H](C[C@@H]1C[C@@H](C)NC1=O)NC(=O)c1cc(Cl)ccc1NC(=O)c1ccnc(C(F)(F)F)c1 [Example 74]	6.2
CNC(=O)C(=O)[C@H](C[C@@H]1C[C@@H](C)NC1=O)NC(=O)c1cc(Cl)ccc1NC(=O)C1CCC(F)(F)C1 (single isomer, unassigned) [Example 16]	31.6
CNC(=O)C(=O)[C@H](C[C@@H]1CCNC1=O)NC(=O)c1cc(Cl)ccc1NC(=O)C(C)(C)C [Example 126, 5-chloro-2-(2,2-dimethylpropanoylamino)-N-[(1S)-3-(methylamino)-2,3-dioxo-1-[[(3S)-2-oxopyrrolidin-3-yl]methyl]propyl]benzamide]	3.8
CNC(=O)C(=O)[C@H](C[C@@H]1C[C@@H](C)NC1=O)NC(=O)c1cc(Cl)cnc1NC(=O)OC [Example 119, methyl N-[5-chloro-3-[[(1S)-3-(methylamino)-1-[[(3S,5R)-5-methyl-2-oxo-pyrrolidin-3-yl]methyl]-2,3-dioxo-propyl]carbamoyl]-2-pyridyl]carbamate]	5.6
CNC(=O)C(=O)[C@H](C[C@@H]1C[C@@H](C)NC1=O)NC(=O)c1cc(C#N)cnc1NC(=O)c1cc(C(F)(F)F)cc(C(F)(F)F)c1 [Example 4, 2-(3,5-bis(trifluoromethyl)benzamido)-5-cyano-N—((S)-1-((3S,5R)-5-methyl-2-oxopyrrolidin-3-yl)-4-(methylamino)-3,4-dioxobutan-2-yl)nicotinamide]	11.5
CCOC(=O)Nc1ccc(Cl)cc1C(=O)N[C@@H](C[C@@H]1CCNC1=O)C(=O)C(=O)NC1CC1 [Example 139]	6.3
CNC(=O)C(=O)[C@H](C[C@@H]1C[C@@H](C)NC1=O)NC(=O)c1cc(Cl)ccc1NC(=O)C1COC1 [Example 135]	3
O=C(Nc1ccc(Cl)cc1C(=O)N[C@@H](C[C@@H]1CCNC1=O)C(=O)C(=O)NC1CC1)OCC(F)(F)F [Example 191, 2,2,2-trifluoroethyl N-[4-chloro-2-[[(1S)-3-(cyclopropylamino)-2,3-dioxo-1-[[(3S)-2-oxopyrrolidin-3-yl]methyl]propyl]carbamoyl]phenyl]carbamate]	16.1
O=C(NC1CC1)C(=O)[C@H](C[C@@H]1CCNC1=O)NC(=O)c1cc(Cl)ccc1NC(=O)c1cncc(C(F)(F)F)c1 [Example 71, N-[4-chloro-2-[[(1S)-3-(cyclopropylamino)-2,3-dioxo-1-[[(3S)-2-oxopyrrolidin-3-yl]methyl]propyl]carbamoyl]phenyl]-5-(trifluoromethyl)pyridine-3-carboxamide]	6.6
C[C@@H]1C[C@@H](C[C@H](NC(=O)c2cc(Cl)ccc2NC(=O)C2CC(F)(F)C2)C(=O)C(=O)NC2CC2)C(=O)N1 [Example 59, 5-chloro-N-[(1S)-3-(cyclopropylamino)-1-[[(3S,5R)-5-methyl-2-oxo-pyrrolidin-3-yl]methyl]-2,3-dioxo-propyl]-2-[(3,3-difluorocyclobutanecarbonyl)amino]benzamide]	8
CNC(=O)C(=O)[C@H](C[C@@H]1C[C@@H](C)NC1=O)NC(=O)c1cc(Cl)ccc1NC(=O)C(C)C(F)(F)F (stereo partly drawn) [Example 19, 5-chloro-N-[(1S)-3-(methylamino)-1-[[(3S,5R)-5-methyl-2-oxo-pyrrolidin-3-yl]methyl]-2,3-dioxo-propyl]-2-[(3,3,3-trifluoro-2-methyl-propanoyl)amino]benzamide]	28.2
CNC(=O)C(=O)[C@H](C[C@@H]1C[C@@H](C)NC1=O)NC(=O)c1cc(Cl)ccc1NC(=O)C(C)C [Example 125, 5-chloro-N-[(1S)-3-(methylamino)-1-[[(3S,5R)-5-methyl-2-oxo-pyrrolidin-3-yl]methyl]-2,3-dioxo-propyl]-2-(2-methylpropanoylamino) benzamide]	5.6
C[C@@H]1C[C@@H](C[C@H](NC(=O)c2cc(Cl)ccc2NC(=O)N(C)CC2CCC(F)(F)CC2)C(=O)C(=O)NC2CC2)C(=O)N1 [Example 105, 5-chloro-N—((S)-4-(cyclopropylamino)-1-((3S,5R)-5-methyl-2-oxopyrrolidin-3-yl)-3,4-dioxobutan-2-yl)-2-(3-((4,4-difluorocyclohexyl)methyl)-3-methylureido)benzamide]	10.9

Reference: patent publication US20240228535A1 (priority 2022, published 2024)
